# Reference: patent US20230085307A1, “PYRIDAZINONE COMPOUND AND HERBICIDE” (NISSAN CHEMICAL CORPORATION, priority 2019, published 2023)
# Experiments:
# oval-leafed pondweed = experiment: Test Example 1: herbicidal activity, application before weed generation under submerged conditions (Table 16, symbol C); assay type: in vivo, oval-leafed pondweed (Monochoria vaginalis); settings: amount of applied herbicide 320 g/ha
# Procedure, shortened: (§1)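 Alluvial soil was flooded to 4 cm depth, weed seeds were sown mixed and 2.5-leaf rice seedlings were transplanted. On sowing day, the compound's emulsion, diluted in water to a set dose, was applied to the water surface. Plants grew at 25–30 °C and were scored 0–5 after three weeks.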
# chickweed [1] = experiment: Test Example 5: herbicidal effect by foliage application, plastic box (Table 20, symbol P); assay type: in vivo, common chickweed (Stellaria media); settings: foliage application, 320 g/ha, three weeks after application
# Procedure, shortened: (§2)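 Foliar spray test: emulsion formulation diluted in water to a set application rate, sprayed onto 14-day-old plants raised in diluvial soil at 25° C to 30° C under glass. Both herbicidal effect and crop effect rated visually three weeks later.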
# green foxtail [2] = experiment: Test Example 4: herbicidal effect by soil treatment (Table 19, symbol G); assay type: in vivo, green foxtail (Setaria viridis); settings: amount of applied herbicide 320 g/ha
# Procedure, shortened: (§3)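 Step 1: sow seeds in sterilized diluvial soil, cover ~1.5 cm. Step 2: spray diluted emulsion onto soil surface at predetermined rate. Step 3: greenhouse, 25–30° C, three weeks. Step 4: grade effect on each plant by earlier criteria.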
# wild oat [3] = experiment: Test Example 5: herbicidal effect by foliage application, plastic box (Table 20, symbol I); assay type: in vivo, wild oat (Avena fatua); settings: foliage application, 320 g/ha, three weeks after application
# Procedure, shortened: as §2
# rice flat sedge = experiment: Test Example 3: herbicidal effect by foliage application, Wagner pot (Table 18, symbol E); assay type: in vivo, rice flat sedge (Cyperus iria); settings: 320 g/ha
# Procedure, shortened: (§4)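 Plants were sown in alluvial soil held under 0.1–0.5 cm standing water and grown 14 days in a greenhouse at 25–30 °C. An emulsifiable formulation, water-diluted to the set dose, was then sprayed onto the foliage, and effects were scored three weeks later using previously defined criteria.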
# Italian ryegrass [4] = experiment: Test Example 5: herbicidal effect by foliage application, plastic box (Table 20, symbol K); assay type: in vivo, Italian ryegrass (Lolium multiflorum); settings: foliage application, 320 g/ha, three weeks after application
# Procedure, shortened: as §2
# southern crabgrass [5] = experiment: Test Example 4: herbicidal effect by soil treatment (Table 19, symbol F); assay type: in vivo, southern crabgrass (Digitaria ciliaris); settings: amount of applied herbicide 320 g/ha
# Procedure, shortened: as §3
# lambsquarters [6] = experiment: Test Example 5: herbicidal effect by foliage application, plastic box (Table 20, symbol O); assay type: in vivo, lambsquarters (Chenopodium album); settings: foliage application, 320 g/ha, three weeks after application
# Procedure, shortened: as §2
# false cleavers [7] = experiment: Test Example 4: herbicidal effect by soil treatment (Table 19, symbol Q); assay type: in vivo, false cleavers (Galium spurium); settings: amount of applied herbicide 320 g/ha
# Procedure, shortened: as §3
# velvetleaf [8] = experiment: Test Example 4: herbicidal effect by soil treatment (Table 19, symbol M); assay type: in vivo, velvetleaf (Abutilon theophrasti); settings: amount of applied herbicide 320 g/ha
# Procedure, shortened: as §3
# chickweed [9] = experiment: Test Example 4: herbicidal effect by soil treatment (Table 19, symbol P); assay type: in vivo, common chickweed (Stellaria media); settings: amount of applied herbicide 320 g/ha
# Procedure, shortened: as §3
# barnyard grass [10] = experiment: Test Example 5: herbicidal effect by foliage application, plastic box (Table 20, symbol H); assay type: in vivo, barnyard grass (Echinochloa crus-galli); settings: foliage application, 320 g/ha, three weeks after application
# Procedure, shortened: as §2
# Italian ryegrass [11] = experiment: Test Example 4: herbicidal effect by soil treatment (Table 19, symbol K); assay type: in vivo, Italian ryegrass (Lolium multiflorum); settings: amount of applied herbicide 320 g/ha
# Procedure, shortened: as §3
# persian speedwell [12] = experiment: Test Example 5: herbicidal effect by foliage application, plastic box (Table 20, symbol R); assay type: in vivo, Persian speedwell (Veronica persica); settings: foliage application, 320 g/ha, three weeks after application
# Procedure, shortened: as §2
# blackgrass [13] = experiment: Test Example 5: herbicidal effect by foliage application, plastic box (Table 20, symbol J); assay type: in vivo, blackgrass (Alopecurus myosuroides); settings: foliage application, 320 g/ha, three weeks after application
# Procedure, shortened: as §2
# persian speedwell [14] = experiment: Test Example 4: herbicidal effect by soil treatment (Table 19, symbol R); assay type: in vivo, Persian speedwell (Veronica persica); settings: amount of applied herbicide 320 g/ha
# Procedure, shortened: as §3
# barnyard grass [15] = experiment: Test Example 4: herbicidal effect by soil treatment (Table 19, symbol H); assay type: in vivo, barnyard grass (Echinochloa crus-galli); settings: amount of applied herbicide 320 g/ha
# Procedure, shortened: as §3
# green foxtail [16] = experiment: Test Example 5: herbicidal effect by foliage application, plastic box (Table 20, symbol G); assay type: in vivo, green foxtail (Setaria viridis); settings: foliage application, 320 g/ha, three weeks after application
# Procedure, shortened: as §2
# late watergrass = experiment: Test Example 1: herbicidal activity, application before weed generation under submerged conditions (Table 16, symbol A); assay type: in vivo, late watergrass (Echinochloa oryzicola); settings: amount of applied herbicide 320 g/ha
# Procedure, shortened: as §1
# blackgrass [17] = experiment: Test Example 4: herbicidal effect by soil treatment (Table 19, symbol J); assay type: in vivo, blackgrass (Alopecurus myosuroides); settings: amount of applied herbicide 320 g/ha
# Procedure, shortened: as §3
# redroot pigweed [18] = experiment: Test Example 5: herbicidal effect by foliage application, plastic box (Table 20, symbol N); assay type: in vivo, redroot pigweed (Amaranthus retroflexus); settings: foliage application, 320 g/ha, three weeks after application
# Procedure, shortened: as §2
# velvetleaf [19] = experiment: Test Example 5: herbicidal effect by foliage application, plastic box (Table 20, symbol M); assay type: in vivo, velvetleaf (Abutilon theophrasti); settings: foliage application, 320 g/ha, three weeks after application
# Procedure, shortened: as §2
# southern crabgrass [20] = experiment: Test Example 5: herbicidal effect by foliage application, plastic box (Table 20, symbol F); assay type: in vivo, southern crabgrass (Digitaria ciliaris); settings: foliage application, 320 g/ha, three weeks after application
# Procedure, shortened: as §2
# windgrass [21] = experiment: Test Example 5: herbicidal effect by foliage application, plastic box (Table 20, symbol L); assay type: in vivo, windgrass (Apera spica-venti); settings: foliage application, 320 g/ha, three weeks after application
# Procedure, shortened: as §2
# barnyard grass [22] = experiment: Test Example 3: herbicidal effect by foliage application, Wagner pot (Table 18, symbol H); assay type: in vivo, barnyard grass (Echinochloa crus-galli); settings: 320 g/ha
# Procedure, shortened: as §4
# lambsquarters [23] = experiment: Test Example 4: herbicidal effect by soil treatment (Table 19, symbol O); assay type: in vivo, lambsquarters (Chenopodium album); settings: amount of applied herbicide 320 g/ha
# Procedure, shortened: as §3
# wild oat [24] = experiment: Test Example 4: herbicidal effect by soil treatment (Table 19, symbol I); assay type: in vivo, wild oat (Avena fatua); settings: amount of applied herbicide 320 g/ha
# Procedure, shortened: as §3
# windgrass [25] = experiment: Test Example 4: herbicidal effect by soil treatment (Table 19, symbol L); assay type: in vivo, windgrass (Apera spica-venti); settings: amount of applied herbicide 320 g/ha
# Procedure, shortened: as §3
# Chinese sprangletop = experiment: Test Example 3: herbicidal effect by foliage application, Wagner pot (Table 18, symbol D); assay type: in vivo, chinese sprangletop (Leptochloa chinensis); settings: 320 g/ha
# Procedure, shortened: as §4
# false cleavers [26] = experiment: Test Example 5: herbicidal effect by foliage application, plastic box (Table 20, symbol Q); assay type: in vivo, false cleavers (Galium spurium); settings: foliage application, 320 g/ha, three weeks after application
# Procedure, shortened: as §2
# Japanese bulrush = experiment: Test Example 1: herbicidal activity, application before weed generation under submerged conditions (Table 16, symbol B); assay type: in vivo, Japanese bulrush (Schoenoplectus juncoides); settings: amount of applied herbicide 320 g/ha
# Procedure, shortened: as §1
# redroot pigweed [27] = experiment: Test Example 4: herbicidal effect by soil treatment (Table 19, symbol N); assay type: in vivo, redroot pigweed (Amaranthus retroflexus); settings: amount of applied herbicide 320 g/ha
# Procedure, shortened: as §3
smiles,measurement,setting,value
Cc1ccc2c(-c3c(O)c(C)nn(C)c3=O)c(-c3ccc4c(c3)OCCO4)sc2c1 [3-059],"Herbicidal effect, C: oval-leafed pondweed",oval-leafed pondweed,2 (Herbicidal rate of 20% or more and less than 40%)
same,"P: chickweed, herbicidal effect grade",chickweed [1],5 (Herbicidal rate of 90% or more (almost completely withered))
same,"G: green foxtail, herbicidal effect grade",green foxtail [2],0 (Herbicidal rate of 5% or less (almost no effect))
same,"I: wild oat, herbicidal effect grade",wild oat [3],0 (Herbicidal rate of 5% or less (almost no effect))
same,herbicidal effect on rice flat sedge (E),rice flat sedge,4 (Herbicidal rate of 70% or more and less than 90%)
same,"K: Italian ryegrass, herbicidal effect grade",Italian ryegrass [4],4 (Herbicidal rate of 70% or more and less than 90%)
same,"F: southern crabgrass, herbicidal effect grade",southern crabgrass [5],0 (Herbicidal rate of 5% or less (almost no effect))
same,"O: lambsquarters, herbicidal effect grade",lambsquarters [6],0 (Herbicidal rate of 5% or less (almost no effect))
same,"Q: false cleavers, herbicidal effect grade",false cleavers [7],0 (Herbicidal rate of 5% or less (almost no effect))
same,"M: velvetleaf, herbicidal effect grade",velvetleaf [8],0 (Herbicidal rate of 5% or less (almost no effect))
same,"P: chickweed, herbicidal effect grade",chickweed [9],0 (Herbicidal rate of 5% or less (almost no effect))
same,"H: barnyard grass, herbicidal effect grade",barnyard grass [10],0 (Herbicidal rate of 5% or less (almost no effect))
same,"K: Italian ryegrass, herbicidal effect grade",Italian ryegrass [11],0 (Herbicidal rate of 5% or less (almost no effect))
same,"R: persian speedwell, herbicidal effect grade",persian speedwell [12],5 (Herbicidal rate of 90% or more (almost completely withered))
same,"J: blackgrass, herbicidal effect grade",blackgrass [13],0 (Herbicidal rate of 5% or less (almost no effect))
same,"R: persian speedwell, herbicidal effect grade",persian speedwell [14],5 (Herbicidal rate of 90% or more (almost completely withered))
same,"H: barnyard grass, herbicidal effect grade",barnyard grass [15],0 (Herbicidal rate of 5% or less (almost no effect))
same,"G: green foxtail, herbicidal effect grade",green foxtail [16],0 (Herbicidal rate of 5% or less (almost no effect))
same,"Herbicidal effect, A: late watergrass",late watergrass,2 (Herbicidal rate of 20% or more and less than 40%)
same,"J: blackgrass, herbicidal effect grade",blackgrass [17],0 (Herbicidal rate of 5% or less (almost no effect))
same,"N: redroot pigweed, herbicidal effect grade",redroot pigweed [18],0 (Herbicidal rate of 5% or less (almost no effect))
same,"M: velvetleaf, herbicidal effect grade",velvetleaf [19],0 (Herbicidal rate of 5% or less (almost no effect))
same,"F: southern crabgrass, herbicidal effect grade",southern crabgrass [20],0 (Herbicidal rate of 5% or less (almost no effect))
same,"L: windgrass, herbicidal effect grade",windgrass [21],0 (Herbicidal rate of 5% or less (almost no effect))
same,herbicidal effect on barnyard grass (H),barnyard grass [22],4 (Herbicidal rate of 70% or more and less than 90%)
same,"O: lambsquarters, herbicidal effect grade",lambsquarters [23],0 (Herbicidal rate of 5% or less (almost no effect))
same,"I: wild oat, herbicidal effect grade",wild oat [24],0 (Herbicidal rate of 5% or less (almost no effect))
same,"L: windgrass, herbicidal effect grade",windgrass [25],0 (Herbicidal rate of 5% or less (almost no effect))
same,herbicidal effect on Chinese sprangletop (D),Chinese sprangletop,0 (Herbicidal rate of 5% or less (almost no effect))
same,"Q: false cleavers, herbicidal effect grade",false cleavers [26],2 (Herbicidal rate of 20% or more and less than 40%)
same,"Herbicidal effect, B: Japanese bulrush",Japanese bulrush,1 (Herbicidal rate of 5% or more and less than 20%)
same,"N: redroot pigweed, herbicidal effect grade",redroot pigweed [27],0 (Herbicidal rate of 5% or less (almost no effect))
